In patent US11573241B2, “Total cellular iron as a marker of cancer stem cells and uses thereof” (Institut National de la Sante et de la Recherche Medicale …, priority 2016, dated 2023):

How the values were obtained:
[1] = system: non-CSC (HMLER CD24^high ID2) cells; assay: Immunoblotting of iron homeostasis regulatory proteins; assay type: cell-based, human
Description: Immunoblotting. Cells were treated as indicated, then washed twice with PBS and lysed with 2× Laemmli buffer. Cell extracts were heated at 95° C. for 5 min, sheared through a 26-gauge needle and quantified with a Nanodrop 2000 (Thermo Scientific). Protein lysates (˜100 μg) were resolved by SDS-PAGE electrophoresis and transferred onto PVDF membranes (Amersham). Membranes were blocked with 5% BSA, 0.1% Tween-20/TBS for 1 h. The blots were then probed with the relevant primary antibodies in 5% BSA, 0.1% Tween-20/TBS at 4° C. overnight with gentle agitation. Membranes were washed with 0.1% Tween-20/TBS for 30 min and were incubated with secondary antibodies for 1 h at RT. Antigens were detected by ECL (Amersham). Imaging was performed using a ChemiDoc™ XRS+ System (Biorad).

iCSCL-10A2 cells = assay: Annexin V/PI assay; assay type: cell-based; conditions: 0.5 μM, 72 h
Description: Annexin V/PI assay. Cells were treated as indicated. After treatment, cell death was quantified using Annexin V-FITC/Propidium Iodide (PI) assay according to the manufacturer's protocol (FITC Annexin V Apoptosis Detection Kit II, 556570, BD Pharmingen™) and analyzed by a LSRFortessa™ flow cytometer (BD Bioscience, San Jose, Calif.). The data were processed using Cell Quest software (BD Biosciences).

[2] = system: patient-derived xenografts (PDX 1 and 2); assay type: in vivo, NOD/SCID mice; conditions: intra-peritoneal; for ratio of residual ALDH+ cells / tumor growth: 4 weeks
From the text: Patient derived xenografts (PDXs). PDXs were established as previously described in Charafe-Jauffret et al., Cancer Res. 73, 7290-7300 (2013) from tissue samples collected prospectively at the Institut Paoli-Calmettes (IPC). Samples of human origin and associated data were obtained from the IPC/CRCM Tumor Bank that operates under authorization #AC-2007-33 granted by the French Ministry of Higher Education and Research. Before scientific use of samples and data, patients were appropriately informed and asked to consent in writing, in compliance with French and European regulations. The project was approved by the IPC Institutional Review Board. Cells from 2 different patient-derived xenografts (PDX 1 and 2) were transplanted orthotopically into fat pads of 4-week-old female non-obese diabetic/severe combined immunodeficient (NOD/SCID) mice (NOD.CB17-Prkdcscid/J, Charles River France) after mechanical treatment and enzymatic digestion using collagenase/hyaluronidase (StemCell Technologies) to generate single-cell suspension suitable for implantation in vivo. PDXs were primarily established as previously described in Caraft-Jauffret et al., and evaluated for ALDEFLUOR-positive CSCs. We injected single cancer cells into fat pads of NOD/SCID mice and monitored tumor growth. When tumor size reached approximately 150 mm^3, Sal and AM5 treatments were performed as indicated above for FIGS. 14 and 15. Tumor growth was compared with that of docetaxel and placebo-treated controls. After 4 weeks of treatment, the animals were sacrificed and the proportion of ALDEFLUOR-positive CSCs was measured in each residual tumor. All animal studies were approved by the French Ministry of Higher Education and Research (authorization number D130554) and ethical committee (number 14), of Aix-Marseille Université. No randomization was used and experimenters were blinded to drug treatments and tissue analyses.
Aldefluor assay. The analysis was processed on single-cell suspension from the PDXs obtained as described above. The ALDEFLUOR Kit (Stemcell™ Technologies) was used to isolate the population with high aldehyde dehydrogenase enzymatic activity using an LSR2 cytometer (Becton Dickinson Biosciences), as previously described in Charafe-Jauffret et al. To eliminate cells of mouse origin from the PDXs, we used staining with an anti-H2Kd antibody (BD Biosciences, 1:200, 20 min on ice) followed by staining with a secondary antibody labeled with phycoerythrin (PE; Jackson Laboratories, 1:250, 20 min on ice).

HMLER CD24^low cells = assay: Lysosomal membrane permeabilization assay; assay type: cell-based, human; conditions: 48 h
Description: Lysosomal membrane permeabilization assay. Lysosomal membrane permeabilization (LMP) was assessed by monitoring the release of FITC-Dextran (FD10S, 10 kDa, Sigma) from lysosomes. In brief, cells were incubated with 1 mg/mL FITC-Dextran for 2 h at 37° C. Cells were washed, chased with culture medium for 2 h and treated as indicated for 48 h or with CQ (positive control) for 3 h. Cells were then fixed with 2% formaldehyde/PBS, washed with PBS, mounted and acquired with a 60×APO TIRF oil immersion objective of Nipkow Spinning Disk confocal system.

| Structure (SMILES) | level of ferritin [1] | response of IRP2 and TfR levels [1] | form of cell death (iCSCL-10A2 cells) | toxicity at effective doses [2] | ratio of residual ALDH+ cells [2] | tumor growth [2] | lysosomal membrane permeabilization (release of lysosomal dextran) (HMLER CD24^low cells) |
| --- | --- | --- | --- | --- | --- | --- | --- |
| C#CCN[C@@H]1C=C[C@]2(O[C@H]([C@@H](CC)C(=O)[C@@H](C)[C@@H](O)[C@H](C)C3O[C@@H](C(CC)C(=O)O)CC[C@@H]3C)[C@@H](C)C[C@H]2C)O[C@@]12CC[C@@](C)([C@H]1CC[C@](O)(CC)[C@H](C)O1)O2 (some centres unmarked) [AM5, Sal-Propargylamine] | reduced the level of ferritin | did not observe a response characteristic of a cytosolic depletion of iron | ferroptosis | without detectable toxicity | reduced ratio of ALDH+ cells | reduce tumor growth | induced a permeabilization of the lysosomal membrane |
| CC[C@@H](C(=O)[C@@H](C)[C@@H](O)[C@H](C)[C@@H]1O[C@@H]([C@@H](CC)C(=O)O)CC[C@@H]1C)[C@H]1O[C@]2(C=C[C@@H](O)[C@]3(CC[C@@](C)([C@H]4CC[C@](O)(CC)[C@H](C)O4)O3)O2)[C@H](C)C[C@@H]1C [Sal, salinomycin, reference compound] | reduced the level of ferritin | did not observe a response characteristic of a cytosolic depletion of iron | ferroptosis | without detectable toxicity | reduced ratio of ALDH+ cells | reduce tumor growth | induced a permeabilization of the lysosomal membrane |
